{"source": "patent US9186340B2", "about": "“Ischemia/reperfusion protection compositions and methods of using” (priority 2007, dated 2015)", "key": {"[1]": {"tested_on": "rats subjected to 60% blood loss", "experiment": "Rat hemorrhagic shock, 60% blood loss (Example 3)", "format": "in vivo", "protocol": "Rats infused with ketone bodies were subjected to 60% blood loss for at least 1 hour, followed by return of the shed blood. Endpoint measures of neuroprotection were quantitative analysis of neuronal survival and apoptosis in cortex, hippocampus and cerebellum as well as neurologic function exam scores. The objective was to determine the effectiveness of the D-form of beta-hydroxybutyrate (D-BHB) in conjunction with melatonin in protecting the brain from ischemia and providing protection from reperfusion injury after blood return.\nThe goal of the following experiments was to maintain 60% blood loss for at least three hours using a minimal amount of fluid in order to maintain viability. Sixty-percent blood loss was calculated by using the equation: Total blood volume=Animal body weight×0.06. A bolus volume of 1 ml ischemia/reperfusion protection composition per kilogram of animal body weight was given to animals after approximately 40% blood loss. Some animals only received a single 1 ml/kg bolus, while other animals received a slow infusion (100 μl/hr) to imitate an intravenous drip of solution after the bolus was given. […]\nOnce rats were fully anesthesized and stabilized for a 20 min period, blood loss was begun. […] Temperature was monitored with a rectal probe. […] Animal death was recorded when blood pressure, respiration, and precordial movement ceased (see FIG. 9 for a timeline). […]"}, "[2]": {"tested_on": "heart of hibernating ground squirrels", "settings": "in vivo, ip", "method": "The overall strategy of these experiments was to measure incorporation of isotope from infused ^13C-BHB into the brain pool of ^13C-BHB and into the tricarboxylic acid (TCA) cycle-derived metabolites such as glutamate, glutamine and aspartate. The same experiments were performed in parallel using [1-^13C2]-glucose (FIG. 1). A quantitative determination of BHB blood-brain transport and a rate of consumption (relative to glucose consumption) was determined in non-hibernating ground squirrels at euthermic temperatures and in hibernating ground squirrels at 4-6° C. Ground squirrels were anesthetized (isoflurane) prior to placement in the magnet of the magnetic resonance (MR) instrument and were injected with ^13C-BHB or [1-^13C2]-glucose."}}}
{"smiles": "C[C@@H](O)CC(=O)O", "note": "[D-BHB, D-beta-hydroxybutyrate]", "values": [{"measurement": "survival following hemorrhagic shock versus 4 M NaCl", "setting": "[1]; 60% blood loss, same osmolarity NaCl comparator", "result": "survived longer"}, {"measurement": "survival versus NaCl, bolus followed by infusion", "setting": "[1]; bolus followed by 100 μl/hr infusion, p-value<0.016", "result": "lived significantly longer"}]}
{"smiles": "[13CH3][C@@H](O)[13CH2]C(=O)O", "note": "[^13C-D-BHB, [2,4-^13C] D-beta-hydroxybutyrate]", "values": [{"measurement": "transport into the heart during hibernation", "setting": "[2]", "result": "efficiently transported into the heart"}]}
